Measured values reported in patent US20250263459A1, “STABILIZED PACAP PEPTIDE” (SENJU PHARMACEUTICAL CO., LTD., priority 2019, published 2025).
Starred links: 1 amine or outer side, 2 acyl side, 3 side chain; linkers in the order of their positions; H or OH if unused. Non-standard residues stand in square brackets, D forms with d. Residues, ends and D or L forms follow the SMILES beside them. ξ: configuration not given here. Ala(1H-tetrazol-5-yl) = N[C@@H](Cc1nnn[nH]1)C(=O)O; ξAla(tetrazol-5-yl) = NC(Cc1nnn[nH]1)C(=O)O; X1 = O=C([C@@H](Cc1nnn[nH]1)N[*:1])[*:2]; Nle = CCCC[C@H](N)C(=O)O; Aib = CC(C)(N)C(=O)O

Columns and labels:
[1] = Stability test 1: survival rate of peptide in phosphate buffer (pH 7.0) after storage, HPLC; format: physicochemical; conditions: 100 μM peptide; for survival rate after correction for water, 40° C. 4 week: 0.1% phosphate buffer pH 7.0, 40° C., 4 weeks (Table 4)
Method: The 1.0 mM peptide solutions were then diluted with phosphate buffer to 100 μM. […] The prepared peptide solutions were incubated for one month or 2 months in a 40° C. thermostatic bath to obtain stored samples.
Using the total weight of the aqueous peptide solution and storage vessel as the specimen weight, measurements were recorded as the specimen weights before storage and the specimen weights after storage under different storage conditions. The empty weight of the storage vessel was also measured, and the moisture permeability was determined by the following formula.
After stirring the standard sample and the stored samples with a vortex mixer, each peptide solution was transferred to an HPLC vial (Deactivated Qsert vial by Waters Co.). Reverse-phase HPLC (HPLC system: Prominence by Shimadzu Corp.) was conducted under the conditions shown in Table 3 below for analysis of the peptide solutions, and chromatograms were obtained.
The peak area value for the peptide in the chromatogram was calculated, and the survival rate (survival rate before correction for water) was calculated using formula (2). The survival rate after correction for water was also calculated from the survival rate before correction for water using formula (3) to take into account the permeability of the container.
Peptide solutions prepared by the same method as [Measuring sample preparation 1] for the peptides synthesized in Example 2 (peptides 13 to 16) were incubated for 2 weeks and 8 weeks in a thermostatic bath at 40° C. to obtain stored samples.
Peptide solutions prepared by the same method as [Measuring sample preparation 1] for the peptides synthesized in Example 2 (peptides 17 to 21) were incubated for 4 weeks in a thermostatic bath at 40° C. to obtain stored samples.
A peptide solution prepared by the same method as [Measuring sample preparation 1] for peptide 22 synthesized in Example 2 was incubated for 1 week and 4 weeks in a thermostatic bath at 40° C. to obtain stored samples.

[2] = as above; format: physicochemical; conditions: 100 μM peptide, 0.1% phosphate buffer pH 7.0, head prints 80° C., 8 weeks (Table 4)
[3] = 100 μM peptide, Tris buffer pH 7.0, 60° C.
Method: The solution was filtered with a Chromatdisk (product of Merck Millipore, Millex-GV, 0.22 μm). The filtrate was diluted to 100 μM with Tris buffer (pH 7.0) and dispensed into a tube (Protein LoBind Tube by Eppendorf Co.). The prepared peptide solutions were incubated for 1 week or 2 weeks in a 60° C. thermostatic bath to obtain stored samples. A simultaneously prepared sample among the peptide solutions that was not stored was used as a standard sample (initial sample). The standard sample and the stored samples were stored at −30° C. until sample analysis.
• Column: XSelect CSH C18 by Waters Co., 5 μm, 4.6×250 mm • Guard column: XSelect CSH C18 by Waters Co., 5 μm, 4.6×20 mm Guard Cartridge • Detection wavelength: 220 nm • Mobile phase A: 0.1% formic acid aqueous solution • Mobile phase B: 0.1% acetonitrile formate solution • Measuring time: 20 minutes • Measuring sample injection rate: 50 μL • Flow rate: 1.0 mL/min • Column temperature: 40° C. • Sample cooler: 25° C. • Mobile phase delivery: The mixing ratio of mobile phase A and mobile phase B was varied as shown in Table 14 for linear concentration gradient control.

Compound | survival rate after correction for water, 40° C. 4 week [1] [%] | survival rate after correction for water, 80° C. 8 week [2] [%] | survival rate after correction for water, 60° C. 1 week preservation [3] [%] | survival rate after correction for water, 60° C. 2 weeks preservation [3] [%] | also measured
CC[C@H](C)[C@H](NC(=O)CNC(=O)C(Cc1nnn[nH]1)NC(=O)[C@H](CO)NC(=O)[C@@H](N)Cc1c[nH]cn1)C(=O)N[C@@H](Cc1ccccc1)C(=O)N[C@@H](C)C(=O)NC(Cc1nnn[nH]1)C(=O)N[C@@H](CO)C(=O)N[C@@H](Cc1ccc(O)cc1)C(=O)NC(C)(C)C(=O)N[C@@H](CCCNC(=N)N)C(=O)N[C@@H](Cc1ccc(O)cc1)C(=O)N[C@@H](CCCNC(=N)N)C(=O)N[C@@H](CCCCN)C(=O)N[C@@H](CCC(N)=O)C(=O)N[C@@H](CCSC)C(=O)N[C@@H](C)C(=O)N[C@H](C(=O)N[C@@H](CCCCN)C(=O)N[C@@H](CCCCN)C(=O)N[C@@H](Cc1ccc(O)cc1)C(=O)N[C@@H](CC(C)C)C(=O)N[C@@H](C)C(=O)N[C@@H](C)C(=O)N[C@H](C(=O)N[C@@H](CC(C)C)C(N)=O)C(C)C)C(C)C (stereo partly drawn) [Peptide 5, HSTzGI FATzSY AiRYRK QMAVK KYLAA VL] (H-HS[ξAla(tetrazol-5-yl)]GIFA[ξAla(tetrazol-5-yl)]SY[Aib]RYRKQMAVKKYLAAVL-NH2) | 94.4 | 85.4 |  |  | 
HSTzGIFTTzSYSRYRKQNIAVKKYLAAVL [Reference Example 3] |  |  | 91.3 | 82.4 | 
CC[C@H](C)[C@H](NC(=O)CNC(=O)C(Cc1nnn[nH]1)NC(=O)[C@H](CO)NC(=O)[C@@H](N)Cc1c[nH]cn1)C(=O)N[C@@H](Cc1ccccc1)C(=O)N[C@@H](C)C(=O)NC(Cc1nnn[nH]1)C(=O)NC(C)(C)C(=O)N[C@@H](Cc1ccc(O)cc1)C(=O)N[C@@H](CO)C(=O)N[C@@H](CCCNC(=N)N)C(=O)N[C@@H](Cc1ccc(O)cc1)C(=O)N[C@@H](CCCNC(=N)N)C(=O)N[C@@H](CCCCN)C(=O)N[C@@H](CCC(N)=O)C(=O)N[C@@H](CCSC)C(=O)N[C@@H](C)C(=O)N[C@H](C(=O)N[C@@H](CCCCN)C(=O)N[C@@H](CCCCN)C(=O)N[C@@H](Cc1ccc(O)cc1)C(=O)N[C@@H](CC(C)C)C(=O)N[C@@H](C)C(=O)N[C@@H](C)C(=O)N[C@H](C(=O)N[C@@H](CC(C)C)C(N)=O)C(C)C)C(C)C (stereo partly drawn) [Peptide 4, HSTzGI FATzAiY SRYRK QMAVK KYLAA VL] (H-HS[ξAla(tetrazol-5-yl)]GIFA[ξAla(tetrazol-5-yl)][Aib]YSRYRKQMAVKKYLAAVL-NH2) | 95.4 | 88.4 |  |  | 
HSTzGIFTTzSYSRYRKQLAVKKYLAAVL [Reference Example 6] (HSXGIFTXSYSRYRKQLAVKKYLAAVL; N-acetyl; C-terminal amide; Tz residues; modified PACAP peptide; MOD_RES (1)..(1) …ON; MUTAGEN (3)..(3) Xaa is amino acid wherein carboxy group of asparatic acid is substituted with tetrazole; MUTAGEN (8)..(8) Xaa is amino acid wherein carboxy group of asparatic acid is substituted with tetrazole) |  |  | 98.4 | 92.8 | 
CC[C@H](C)[C@H](NC(=O)CNC(=O)C(Cc1nnn[nH]1)NC(=O)[C@H](CO)NC(=O)[C@@H](N)Cc1c[nH]cn1)C(=O)N[C@@H](Cc1ccccc1)C(=O)N[C@@H](C)C(=O)NC(Cc1nnn[nH]1)C(=O)N[C@@H](CO)C(=O)N[C@@H](Cc1ccc(O)cc1)C(=O)N[C@@H](C)C(=O)N[C@@H](CCCNC(=N)N)C(=O)N[C@@H](Cc1ccc(O)cc1)C(=O)N[C@@H](CCCNC(=N)N)C(=O)N[C@@H](CCCCN)C(=O)N[C@@H](CCC(N)=O)C(=O)N[C@@H](CCSC)C(=O)N[C@@H](C)C(=O)N[C@H](C(=O)N[C@@H](CCCCN)C(=O)N[C@@H](CCCCN)C(=O)N[C@@H](Cc1ccc(O)cc1)C(=O)N[C@@H](CC(C)C)C(=O)N[C@@H](C)C(=O)N[C@@H](C)C(=O)N[C@H](C(=O)N[C@@H](CC(C)C)C(N)=O)C(C)C)C(C)C (stereo partly drawn) [Peptide 2, HSTzGI FATzSY ARYRK QMAVK KYLAA VL] (H-HS[ξAla(tetrazol-5-yl)]GIFA[ξAla(tetrazol-5-yl)]SYARYRKQMAVKKYLAAVL-NH2) | 91.9 | 83.7 |  |  | 
HSTzGIFTTzSYSRYRKQLAVKKYLAAVL [Reference Example 4] |  |  | 91.7 | 84.8 | 
HSTzGIFTTzSYSRYRKQNIAVKKYLAAVL [Reference Example 5] (HSXGIFTXSYSRYRKQXAVKKYLAAVL; N-acetyl; C-terminal amide; Tz residues; modified PACAP peptide; MOD_RES (1)..(1) …ON; MUTAGEN (3)..(3) Xaa is amino acid wherein carboxy group of asparatic acid is substituted with tetrazole; MUTAGEN (8)..(8) Xaa is amino acid wherein carboxy group of asparatic acid is substituted with tetrazole; MUTAGEN (17)..(17) Xaa is Nle) |  |  | 98.1 | 92.9 | 
CC[C@H](C)[C@H](NC(=O)CNC(=O)C(Cc1nnn[nH]1)NC(=O)[C@H](CO)NC(=O)[C@@H](N)Cc1c[nH]cn1)C(=O)N[C@@H](Cc1ccccc1)C(=O)N[C@H](C(=O)NC(Cc1nnn[nH]1)C(=O)N[C@@H](CO)C(=O)N[C@@H](Cc1ccc(O)cc1)C(=O)N[C@@H](CO)C(=O)N[C@@H](CCCNC(=N)N)C(=O)N[C@@H](Cc1ccc(O)cc1)C(=O)N[C@@H](CCCNC(=N)N)C(=O)N[C@@H](CCCCN)C(=O)N[C@@H](CCC(N)=O)C(=O)N[C@@H](CCSC)C(=O)N[C@@H](C)C(=O)N[C@H](C(=O)N[C@@H](CCCCN)C(=O)N[C@@H](CCCCN)C(=O)N[C@@H](Cc1ccc(O)cc1)C(=O)N[C@@H](CC(C)C)C(=O)N[C@@H](C)C(=O)N[C@@H](C)C(=O)N[C@H](C(N)=O)C(C)C)C(C)C)[C@@H](C)O (stereo partly drawn) [Peptide 9, HSTzGI FTTzSY SRYRK QMAVK KYLAA V] (H-HS[ξAla(tetrazol-5-yl)]GIFT[ξAla(tetrazol-5-yl)]SYSRYRKQMAVKKYLAAV-NH2) | 92.4 | 83.3 |  |  | 
CCCC[C@H](NC(=O)[C@H](CCC(N)=O)NC(=O)[C@H](CCCCN)NC(=O)[C@H](CCCNC(=N)N)NC(=O)[C@H](Cc1ccc(O)cc1)NC(=O)[C@H](CCCNC(=N)N)NC(=O)[C@H](CO)NC(=O)[C@H](Cc1ccc(O)cc1)NC(=O)[C@H](CO)NC(=O)[C@H](Cc1nnn[nH]1)NC(=O)[C@@H](NC(=O)[C@H](Cc1ccccc1)NC(=O)[C@@H](NC(=O)CNC(=O)[C@@H](Cc1nnn[nH]1)NC(=O)[C@H](CO)NC(=O)[C@@H](N)Cc1c[nH]cn1)[C@@H](C)CC)[C@@H](C)O)C(=O)N[C@@H](C)C(=O)N[C@H](C(=O)N[C@@H](CCCCN)C(=O)N[C@@H](CCCCN)C(=O)N[C@@H](Cc1ccc(O)cc1)C(=O)N[C@@H](CC(C)C)C(=O)N[C@@H](C)C(=O)N[C@@H](C)C(=O)N[C@H](C(=O)N[C@@H](CC(C)C)C(N)=O)C(C)C)C(C)C [Peptide 15, HSTz(D)GI FTTzSY SRYRK QNIAVK KYLAA VL] (H-HS[X1]GIFT[Ala(1H-tetrazol-5-yl)]SYSRYRKQ[Nle]AVKKYLAAVL-NH2) |  |  |  |  | survival rate after correction for water, 40° C. 2 week ([1]; phosphate buffer pH 7.0, 40° C., 2 weeks (Table 6)): 95.6%; survival rate after correction for water, 40° C. 8 week ([1]; phosphate buffer pH 7.0, 40° C., 8 weeks (Table 6)): 81.3%
